The target of one data set is Tryptase (Homo sapiens, UniProt Q9BZJ3+Q15661+Q9NRR2). Description: Inhibition of mast cell tryptase. The format is protein assay.
Data set [1] can be described thus: Stability in dog liver microsome after 3 hrs. In kind it is ADME, Canis lupus familiaris. Conditions: liver microsomes, read-out: Stability. For orientation: Liver microsomes are a subcellular fraction often used to study metabolism.
The nature of data set [2]: Stability in human liver microsome after 3 hrs. The following applies: liver microsomes, read-out: Stability. In kind it is ADME.
A short description of data set [3]: Stability in mouse liver microsome after 3 hrs. The following applies: liver microsomes, read-out: Stability. In kind it is ADME.
Data set [4] in a line: Stability in rat liver microsome after 3 hrs. The format is ADME. The following applies: liver microsomes, read-out: Stability.
The next data set is filed under the species Macaca fascicularis. Briefly: Stability in cynomolgus monkey liver microsome after 3 hrs. The following applies: liver microsomes.

A word on the Ki: it is the equilibrium dissociation constant of an inhibitor or competing ligand from its target.

`Cn1c(C(F)(F)c2nc3c(F)cc(F)cc3[nH]2)nc2ccc(C(=O)NC(O)COc3ccc(F)cc3)cc21` (stereo unspecified) yielded a Ki on Tryptase of 24 nM.
Consider `Cn1c(C(F)(F)c2nc3c(F)cc(F)cc3[nH]2)nc2ccc(C(=O)NCCOc3ccc(F)cc3)cc21`, for which the remaining at 3 h is below 10% in data set [1]; below 10% in data set [2]; below 10% in data set [3]; 56% in data set [4]; below 10% in the data set filed under Macaca fascicularis. The compound also registered a Ki at Tryptase of 300 nM.
As to `Cn1c(C(F)(F)c2nc3c(F)cc(F)c(O)c3[nH]2)nc2ccc(C(=O)NCCOc3ccc(F)cc3)cc21`, the Ki on Tryptase came out at 34 nM.
On the same count and under the same terms, to `Cn1c(C(F)(F)c2nc3c(F)cc(F)cc3[nH]2)nc2ccc(C(N)=O)cc21` belongs 2700 nM; to `Cn1c(C(F)(F)c2nc3c(F)cc(F)cc3[nH]2)nc2ccc(C(=O)NCCO)cc21`, 7000 nM.
The same measure, in the same setting: to `Cn1c(C(F)(F)c2nc3c(F)c(O)c(F)cc3[nH]2)nc2ccc(C(=O)NCCOc3ccc(F)cc3)cc21` belongs 1400 nM.

For the origin of these results see ChEMBL document CHEMBL1146042, “Identification of metabolites of the tryptase inhibitor CRA-9249: observation of a metabolite derived from an unexpected hydroxylation pathway” (Bioorg Med Chem Lett, 2006).
